# Legend:
# HCC1569 cells = test: Cell proliferation assay (CCK-8), HCC1569; assay type: cell-based; settings: for IC50: Homo sapiens, HCC1569, 120 h, CCNE1-amplified breast cancer cells, 5-day incubation, mean ± SD, n = 3
# Method: (§1) HCC1569 and OVCAR3 cells (2 × 10^3/well) were seeded in 96-well plates and cultured for 24 h at 37 °C, 5% CO2. Compounds at varying concentrations were added, followed by 5-day incubation. Cell viability was assessed using Cell Counting Kit-8 (CCK-8) with absorbance measurement at 450 nm. HCC1569 (BNCC341698) was purchased from BNCC and OVCAR3 (CL-0178) was purchased from Procell.
# OVCAR3 cells = test: Cell proliferation assay (CCK-8), OVCAR3; assay type: cell-based; settings: for IC50: Homo sapiens, OVCAR-3, 120 h, CCNE1-amplified ovarian cancer cells, 5-day incubation, mean ± SD, n = 3
# Method: as §1
# A549 cells = test: Anti-proliferative activity in low-expressing CCNE1 cells A549; assay type: cell-based; settings: Homo sapiens, A549; lung cancer cells, low CCNE1 expression; mean ± SD, n = 3
# BEAS-2B cells = test: Anti-proliferative activity in normal lung epithelial cells BEAS-2B; assay type: cell-based; settings: Homo sapiens, BEAS-2B; lung epithelial cells; mean ± SD, n = 3
# PKMYT1 = molecular target: T1, PKMYT1 (Homo sapiens, UniProt Q99640); test: PKMYT1 enzyme inhibition assay (LanthaScreen Eu kinase binding method); settings: mean of two separate experiments
# T1 sequence (Q99640 1-499): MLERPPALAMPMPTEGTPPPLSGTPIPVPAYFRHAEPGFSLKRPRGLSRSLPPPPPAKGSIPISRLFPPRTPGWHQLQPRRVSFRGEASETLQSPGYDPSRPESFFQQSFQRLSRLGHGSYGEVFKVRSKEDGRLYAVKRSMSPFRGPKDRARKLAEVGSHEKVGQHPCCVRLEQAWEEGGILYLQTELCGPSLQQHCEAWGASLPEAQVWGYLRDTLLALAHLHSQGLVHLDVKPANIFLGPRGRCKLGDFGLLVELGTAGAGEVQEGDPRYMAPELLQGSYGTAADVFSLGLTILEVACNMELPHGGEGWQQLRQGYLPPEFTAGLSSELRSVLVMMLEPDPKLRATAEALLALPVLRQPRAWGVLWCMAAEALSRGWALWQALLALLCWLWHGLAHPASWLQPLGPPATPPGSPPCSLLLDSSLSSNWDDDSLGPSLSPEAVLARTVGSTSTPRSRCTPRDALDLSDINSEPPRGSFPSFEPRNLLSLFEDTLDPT
# Method: The PKMYT1 kinase assay was conducted with the LanthaScreen™ Eu kinase binding method, as provided by Thermo Fisher Scientific (Waltham, MA, USA). Initially, compounds were prepared at a concentration of 4 mM in DMSO and subsequently diluted to various concentrations in 1X buffer. […] The plate was then incubated in the dark at 25 °C for 1 h, and fluorescence signals were recorded at 665 nm and 615 nm.
IC50 (HCC1569 cells) [nM],IC50 (OVCAR3 cells) [nM],IC50 (PKMYT1) [nM],SMILES,further results
–,–,16,"Cc1ccc(O)c(C)c1NC(=O)c1cnc(Nc2ccc(Cl)cc2)nc1N [MY-4, 4-amino-2-((4-chlorophenyl)amino)-N-(3-hydroxy-2,6-dimethylphenyl)]",–
–,–,20,"Cc1ccc(O)c(C)c1NC(=O)c1cnc(Nc2ccc(F)cc2)nc1N [MY-5, 4-amino-2-((4-fluorophenyl)amino)-N-(3-hydroxy-2,6-dimethylphenyl)pyrimidine-5-carboxamide]",–
–,–,28,"Cc1ccc(Nc2ncc(C(=O)Nc3c(C)ccc(O)c3C)c(N)n2)cc1 [MY-7, 4-amino-2-(p-tolylamino)-N-(3-hydroxy-2,6-dimethylphenyl)pyrimidine-5-carboxamide]",–
–,–,17,"Cc1ccc(O)c(C)c1NC(=O)c1cnc(Nc2cccc(Cl)c2)nc1N [MY-3, 4-amino-2-((3-chlorophenyl)amino)-N-(3-hydroxy-2,6-dimethylphenyl)pyrimidine-5-carboxamide]",–
–,–,26,"Cc1ccc(O)c(C)c1NC(=O)c1cnc(Nc2ccccc2)nc1N [MY-1, 4-amino-2-(phenylamino)-N-(3-hydroxy-2,6-dimethylphenyl)pyrimidine-5-carboxamide]",–
–,–,150,"Cc1ccc(O)c(C)c1NC(=O)c1cnc(Nc2ccccc2Cl)nc1N [MY-2, 4-amino-2-((2-chlorophenyl)amino)-N-(3-hydroxy-2,6-dimethylphenyl)pyrimidine-5-carboxamide]",–
–,–,36,"Cc1ccc(O)c(C)c1NC(=O)c1cnc(Nc2ccc(Br)cc2)nc1N [MY-6, 4-amino-2-((4-bromophenyl)amino)-N-(3-hydroxy-2,6-dimethylphenyl)pyrimidine-5-carboxamide]",–
3540 ± 210,600 ± 90,5.7,"Cc1ccc(O)c(C)c1NC(=O)c1cnc(Nc2ccc3scnc3c2)nc1N [MY-20, 4-amino-2-(benzo[d]thiazol-5-ylamino)-N-(3-hydroxy-2,6-dimethylphenyl)pyrimidine-5-carboxamide]",–

# Continued, compound first:
SMILES,IC50 (HCC1569 cells) [nM],IC50 (OVCAR3 cells) [nM],IC50 (PKMYT1) [nM],further results
"Cc1cc2c(C(N)=O)c(N)n(-c3c(C)ccc(O)c3C)c2nc1C [RP-6306, reference compound]",110 ± 20,90 ± 10,–,IC50 (A549 cells): 1450 ± 230 nM; IC50 (BEAS-2B cells): 2600 ± 540 nM
"Cc1ccc(O)c(C)c1NC(=O)c1cnc(Nc2ccc(C(=O)N(C)C)cc2)nc1N [MY-15, 4-amino-2-((4-(dimethylcarbamoyl)phenyl)amino)-N-(3-hydroxy-2,6-dimethylphenyl)pyrimidine-5-carboxamide]",–,–,15,–
"Cc1ccc(O)c(C)c1NC(=O)c1cnc(Nc2ccc3ccoc3c2)nc1N [MY-18, 4-amino-2-(benzofuran-6-ylamino)-N-(3-hydroxy-2,6-dimethylphenyl)pyrimidine-5-carboxamide]",6970 ± 1090,3310 ± 180,8.5,–
"Cc1ccc(O)c(C)c1NC(=O)c1cnc(Nc2ccc([N+](=O)[O-])cc2)nc1N [MY-12, 4-amino-2-((4-nitrophenyl)amino)-N-(3-hydroxy-2,6-dimethylphenyl)pyrimidine-5-carboxamide]",6350 ± 310,740 ± 110,5.1,–
"Cc1ccc(O)c(C)c1NC(=O)c1cnc(Nc2ccc(N3CCN(C)CC3)cc2)nc1N [MY-11, 4-amino-2-((4-(4-methylpiperazin-1-yl)phenyl)amino)-N-(3-hydroxy-2,6-dimethylphenyl)pyrimidine-5-carboxamide]",3560 ± 590,2120 ± 330,7.1,–
"Cc1ccc(O)c(C)c1NC(=O)c1cnc(Nc2ccc(P(C)(C)=O)cc2)nc1N [MY-13, 4-amino-2-((4-(dimethylphosphoryl)phenyl)amino)-N-(3-hydroxy-2,6-dimethylphenyl)pyrimidine-5-carboxamide]",> 8000,> 8000,7.9,anti-proliferative activity (in words) (HCC1569 cells; HCC1569): complete loss of activity; anti-proliferative activity (in words) (OVCAR3 cells; OVCAR3): complete loss of activity
"Cc1ccc(O)c(C)c1NC(=O)c1cnc(Nc2ccc3occc3c2)nc1N [MY-21, 4-amino-2-(benzofuran-5-ylamino)-N-(3-hydroxy-2,6-dimethylphenyl)pyrimidine-5-carboxamide]",–,–,12,–
"Cc1ccc(O)c(C)c1NC(=O)c1cnc(Nc2ccc(N3CCOCC3)cc2)nc1N [MY-10, 4-amino-2-((4-morpholinophenyl)amino)-N-(3-hydroxy-2,6-dimethylphenyl)pyrimidine-5-carboxamide]",2950 ± 320,810 ± 60,8.6,–
"Cc1ccc(O)c(C)c1NC(=O)c1cnc(Nc2ccc3ncsc3c2)nc1N [MY-19, 4-amino-2-(benzo[d]thiazol-6-ylamino)-N-(3-hydroxy-2,6-dimethylphenyl)pyrimidine-5-carboxamide]",3140 ± 280,1250 ± 60,3.5,–
"Cc1ccc(O)c(C)c1NC(=O)c1cnc(Nc2ccc(C(=O)N3CCOCC3)cc2)nc1N [MY-16, 4-amino-2-((4-(morpholine-4-carbonyl)phenyl)amino)-N-(3-hydroxy-2,6-dimethylphenyl)pyrimidine-5-carboxamide]",> 8000,1190 ± 90,6.1,–
"Cc1ccc(O)c(C)c1NC(=O)c1cnc(Nc2ccc(C(C)C)cc2)nc1N [MY-8, 4-amino-2-((4-isopropylphenyl)amino)-N-(3-hydroxy-2,6-dimethylphenyl)pyrimidine-5-carboxamide]",–,–,46,–
Cc1ccc(O)c(C)c1NC(=O)c1cnc(Nc2ccccc2)nc1 [Compound M1],–,–,220,–
"Cc1ccc(O)c(C)c1NC(=O)c1cnc(Nc2ccc(-c3ccccc3)cc2)nc1N [MY-9, 4-amino-2-([1,1′-biphenyl]-4-ylamino)-N-(3-hydroxy-2,6-dimethylphenyl)pyrimidine-5-carboxamide]",–,–,32,–
"Cc1ccc(O)c(C)c1NC(=O)c1cnc(Nc2ccc3c(c2)CN(C)C3=O)nc1N [MY-17, 4-amino-2-((2-methyl-1-oxoisoindolin-5-yl)amino)-N-(3-hydroxy-2,6-dimethylphenyl)pyrimidine-5-carboxamide]",> 8000,980 ± 70,3.3,–

# — paper PMC12467068, “Design, Synthesis, and Computational Insights into PKMYT1 Inhibitors for the Treatment of Breast Cancer” (Biomedicines, 2025)
